Test results published in US20220298145A1, “BRAF INHIBITORS AS PARADOX BREAKERS” (Hoffmann-La Roche Inc., priority 2019, published 2022).

What was measured:
CRAF = CRAF (Homo sapiens, UniProt P04049); assay: Kd for RAF kinases: CRAF; assay type: binding
[1] = tested on: ERK 1,2 phosphorylation in A375 cells expressing V600E mutated BRAF; assay: HTRF assay for P-ERK determination in A375 cells (BRAF inhibition); assay type: cell-based; conditions: Homo sapiens, A-375, 1 h, read-out: pERK IC50 A375
Excerpt: (§1) DMEM no-phenol red medium supplemented with L-glutamine was purchased from (Thermo Fisher Scientific). Fetal bovine serum (FBS) was purchased from VWR. Advanced ERK phospho-T202/Y204 kit-10,000 tests was purchased from Cisbio cat #64AERPEH. A375 and HCT116 cells were originally obtained from ATCC and banked by the Roche repository.
A375 is a cellular cancer model expressing V600E mutated BRAF and HCT116 a cellular cancer model expressing WT BRAF. […] ERK 1,2 phosphorylation (terminal member of the phosphorylation cascade of the MAPK pathway) is hereafter reported as main readout for the activation status of the MAPK pathway. Prior to the assay, A375 and HCT116 cell lines are maintained in DMEM no-phenol red medium supplemented with 10% fetal bovine serum (FBS). […] Briefly, 8000 cells/well in 12 μl media/well are plated in the 384-well plate and left overnight in the incubator (at 37° C. with 5% CO2-humidified atmosphere), the following day the plate is treated in duplicate with test compounds, dabrafenib and PLX8394 (the latter two as controls) at the following final drug concentrations: 10 μM-3 μM-1 μM-0.3 μM-0.1 μM-0.03 μM-0.01 μM-0.003 μM-0.001 μM, all wells are subjected to DMSO normalization and drug incubation occurs for 1 hour. Then, 4 μl of a 4× lysis buffer supplied with the kit are added to the wells, the plate is then centrifuged for 30 second (300 rcf) and incubated on a plate shaker for 1 h at RT.
(§2) At the end of the incubation 4 μL/well of advanced P-ERK antibody solution (prepared according to manufacturer's instruction) followed by 4 μL/well of criptate P-ERK antibody solution (prepared according to manufacturer's instruction) (Cisbio cat #64AERPEH) are added to test wells.
(§3) In order to allow proper data normalization control wells non drug treated reported in the following table are always included in each plate (according to manufacturer's instruction):
(§4) The plate is then centrifuged at 300 rcf for 30 second, sealed to prevent evaporation and incubated overnight in the dark at room temperature.
(§5) The obtained fluorescence values are processed according to the formula Ratio=Signal (620 nm)/Signal (625 nm)*10000 then the average of the ratio on the blank is subtracted to all values.
Data are normalized in the case of A375 cells (BRAF inhibition) considering the average of the ratio (blank subtracted) derived by DMSO only treated cells as 100% and by considering the average of the ratio (blank subtracted) derived by 10 uM dabrafenib treated cells as 0%. Mean of the normalized points are fitted with sigmoidal curve and IC50 determined.

BRAF = BRAF (Homo sapiens, UniProt P15056); assay: Kd for RAF kinases: BRAF; assay type: binding
BRAF, sequence (P15056 whole entry): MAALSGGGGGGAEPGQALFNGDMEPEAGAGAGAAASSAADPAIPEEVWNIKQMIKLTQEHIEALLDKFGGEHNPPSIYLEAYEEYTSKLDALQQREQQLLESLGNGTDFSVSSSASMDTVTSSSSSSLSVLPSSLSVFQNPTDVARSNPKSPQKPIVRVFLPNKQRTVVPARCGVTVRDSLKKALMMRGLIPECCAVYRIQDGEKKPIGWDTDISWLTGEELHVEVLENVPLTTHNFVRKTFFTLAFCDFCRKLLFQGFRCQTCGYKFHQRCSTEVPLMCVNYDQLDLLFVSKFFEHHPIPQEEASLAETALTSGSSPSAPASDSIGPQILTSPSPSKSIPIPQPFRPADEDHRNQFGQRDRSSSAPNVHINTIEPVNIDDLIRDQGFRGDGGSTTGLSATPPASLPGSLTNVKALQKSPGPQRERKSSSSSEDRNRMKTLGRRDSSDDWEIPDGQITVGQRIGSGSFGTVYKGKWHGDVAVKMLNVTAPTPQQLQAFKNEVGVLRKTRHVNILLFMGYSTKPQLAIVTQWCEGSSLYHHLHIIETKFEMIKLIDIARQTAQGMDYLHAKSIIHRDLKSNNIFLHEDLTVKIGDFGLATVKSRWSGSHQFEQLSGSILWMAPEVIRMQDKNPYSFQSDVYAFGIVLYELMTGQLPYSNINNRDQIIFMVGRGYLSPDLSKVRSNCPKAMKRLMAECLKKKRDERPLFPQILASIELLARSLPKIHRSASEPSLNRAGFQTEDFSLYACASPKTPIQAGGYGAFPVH

[2] = tested on: ERK 1,2 phosphorylation in HCT116 cells expressing WT BRAF; assay: HTRF assay for P-ERK determination in HCT116 cells (paradoxical BRAF activation); assay type: cell-based; conditions: for Emax: Homo sapiens, HCT-116, read-out: Percentage of maximum paradox inducing effect from dabrafenib
Excerpt: as §1, with “repository. 384-well microplates were purchased from Greiner Bio-One, 384-well, (With Lid, HiBase, Low volume cat 784-080).” for “repository.”
A375 is a cellular cancer model expressing V600E mutated BRAF and HCT116 a cellular cancer model expressing WT BRAF. First generation BRAF inhibitors such as e.g. dabrafenib induce a paradox effect on tumour cells in that they inhibit the growth of V600E mutated BRAF cells (such as e.g. A375), while they activate growth in WT BRAF cells (such as e.g. HCT 116). ERK 1,2 phosphorylation (terminal member of the phosphorylation cascade of the MAPK pathway) is hereafter reported as main readout for the activation status of the MAPK pathway. Prior to the assay, A375 and HCT116 cell lines are maintained in DMEM no-phenol red medium supplemented with 10% fetal bovine serum (FBS). Following compound treatment, P-ERK levels are determined by measuring FRET fluorescence signal induced by selective binding of 2 antibodies provided in the mentioned kit (Cisbio cat #64AERPEH) on ERK protein when phosphorylated at Thr202/Tyr204. Briefly, 8000 cells/well in 12 μl media/well are plated in the 384-well plate and left overnight in the incubator (at 37° C. with 5% CO2-humidified atmosphere), the following day the plate is treated in duplicate with test compounds, dabrafenib and PLX8394 (the latter two as controls) at the following final drug concentrations: 10 μM-3 μM-1 μM-0.3 μM-0.1 μM-0.03 μM-0.01 μM-0.003 μM-0.001 μM, all wells are subjected to DMSO normalization and drug incubation occurs for 1 hour. Then, 4 μl of a 4× lysis buffer supplied with the kit are added to the wells, the plate is then centrifuged for 30 second (300 rcf) and incubated on a plate shaker for 1 h at RT.
as §2, §3, §4
The plate is then analyzed and fluorescence emission value collected through a Pherastast FSX (BMG Labtech) apparatus at […].
as §5
Data are normalized in the case of HCT116 cells (BRAF activation) considering the average of the ratio (blank subtracted) derived by DMSO only treated cells as 0% and by considering the average of the ratio (blank subtracted) derived by dabrafenib treated cells at the concentration which provides the highest signal as 100%. Individual points are fitted with either sigmoidal or bell shape curves, and the percentage of activation compared to maximum dabrafenib-mediated activation is determined. The EC50 is the concentration at which activation equal to 50% of the maximum achieved by dabrafenib is obtained.
The Percentage of Maximum paradox inducing effect from dabrafenib is determined by evaluating the percentage at which the test compound induce its maximum P-ERK signal as percentage of the highest signal produced by dabrafenib within the dose range tested.

BRAF (V600E) = BRAF (V600E) (Homo sapiens, UniProt P15056, V600E); assay: Kd for RAF kinases: BRAF (V600E); assay type: binding
BRAF (V600E), sequence (P15056 whole entry V600E): as the sequence (P15056 whole entry) above, with V600E counted along it

CRAF, sequence (P04049 whole entry): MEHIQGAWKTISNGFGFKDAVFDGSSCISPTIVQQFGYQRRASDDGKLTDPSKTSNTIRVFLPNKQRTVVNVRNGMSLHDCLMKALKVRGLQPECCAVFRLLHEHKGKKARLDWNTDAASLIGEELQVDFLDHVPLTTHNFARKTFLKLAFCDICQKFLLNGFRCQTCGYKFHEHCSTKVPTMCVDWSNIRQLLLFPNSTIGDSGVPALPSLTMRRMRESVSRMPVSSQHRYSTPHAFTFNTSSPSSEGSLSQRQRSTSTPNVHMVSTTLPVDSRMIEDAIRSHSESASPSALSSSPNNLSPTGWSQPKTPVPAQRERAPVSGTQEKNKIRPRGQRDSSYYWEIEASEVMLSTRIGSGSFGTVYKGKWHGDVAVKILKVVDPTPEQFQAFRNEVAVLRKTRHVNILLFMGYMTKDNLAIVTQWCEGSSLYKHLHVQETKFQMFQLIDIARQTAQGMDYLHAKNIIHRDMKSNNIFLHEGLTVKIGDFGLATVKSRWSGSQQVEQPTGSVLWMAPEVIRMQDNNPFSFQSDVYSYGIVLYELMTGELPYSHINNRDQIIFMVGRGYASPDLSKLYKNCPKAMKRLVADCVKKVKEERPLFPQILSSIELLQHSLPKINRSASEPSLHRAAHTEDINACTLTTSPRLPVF

Kd (CRAF) | IC50 [1] | Kd (BRAF) | EC50 ([2]; read-out: P-ERK EC50 conc. at which the compound induces p-ERK activation of 50% of that induced by dabrafenib (Positive control paradox inducer) HCT-116, HCT-116 cells, 1 hour drug incubation, not applicable = activation does not reach 50% of dabrafenib maximum) | Kd (BRAF (V600E)) | SMILES | Emax [2]
7.2 nM | 52.5 nM | 10.6 nM | > 1000 nM | 32.3 nM | CCN(C)S(=O)(=O)Nc1cccc(Oc2ccc3ncn(C)c(=O)c3c2)c1C#N [Example 5, 6-[2-cyano-3-[[ethyl(methyl)sulfamoyl]amino]phenoxy]-3-methyl-4-oxo-quinazoline] | 61%
6.8 nM | 8.8 nM | 3.9 nM |  | 14.4 nM | CCC(C)S(=O)(=O)Nc1cccc(Oc2ccc3ncn(C)c(=O)c3c2)c1C#N (racemic) [Example 10, (RS)—N-[2-cyano-3-(3-methyl-4-oxo-quinazolin-6-yl)oxy-phenyl]butane-2-sulfonamide] | 21%
